From ChEMBL document CHEMBL4765274, “The development of advanced structural framework as multi-target-directed ligands for the treatment of Alzheimer's disease” (Eur J Med Chem, 2020)
Calls of active or inactive are those of the source. The calls are words filed in the database; no cut-off is given here.

Tests used:
[1] = Toxicity in 2 dpf zebra fish assessed as degenerating muscle within the somites at 25 ug/ml after 3 days relative to control; design: species or system Danio rerio; conditions: zebrafish, 72 h, at 25 µg/mL, time 3 day
[2] = Toxicity in 3 dpf zebra fish assessed as mortality at 25 ug/ml (reference value: 0%); design: species or system Danio rerio; conditions: zebrafish, at 25 µg/mL, read-out: Activity
HT-22 [3] = test: Activation of ubiquitin-proteasome system in mouse HT-22 cells expressing pRK5-GFP-Tau P301L mutant assessed as increase in tau degradation by measuring reduction in GFP level at 2.5 to 20 uM after 24 hrs by flow cytometric analysis; type: cell-based; conditions: filed as activator, dose 2.5-20 µM
[4] = Metal chelating activity assessed as Zn2+-compound complex formation in PBS buffer at pH 7.4 at 37.5 uM by UV-Visible spectra analysis
[5] = Effect on GFP expression in mouse HT-22 cells expressing pEGFP-N1 at 10 uM after 24 hrs by fluorescence microscopic method; type: ADME, cell-based; conditions: ht-22, 24 h
Danio rerio [6] = organism: Danio rerio; test: Antialzheimer activity in Alcl3-induced zebra fish AD model assessed as increase in motility at 0.78 ug/ml relative to control; type: functional; conditions: dose 0.78 µg/ml
[7] = Toxicity in 3 dpf zebra fish assessed as mortality at 100 ug/ml (reference value: 0%); design: species or system Danio rerio; conditions: zebrafish, at 100 µg/mL, read-out: Activity
Danio rerio [8] = organism: Danio rerio; test: Antialzheimer activity in Alcl3-induced zebra fish AD model assessed as increase in motility at 0.26 ug/ml relative to control; type: functional; conditions: dose 0.26 µg/ml
[9] = Metal chelating activity assessed as Cu2+-compound complex formation in methanol at 37.5 uM by UV-Visible spectra analysis
Danio rerio [10] = organism: Danio rerio; test: Antialzheimer activity in Alcl3-induced zebra fish AD model assessed as increase dyskinesia recovery rate at 0.78 ug/ml relative to control; type: functional; conditions: dose 0.78 µg/ml
[11] = Toxicity in 2 dpf zebra fish assessed as edema in kidney at 25 ug/ml after 3 days relative to control; design: species or system Danio rerio; conditions: zebrafish, 72 h, at 25 µg/mL, time 3 day
[12] = Toxicity in 2 dpf zebra fish assessed as pericardial edema at 25 ug/ml after 3 days relative to control; design: species or system Danio rerio; conditions: zebrafish, 72 h, at 25 µg/mL, time 3 day
[13] = Toxicity in 3 dpf zebra fish assessed as blood flow retardation at 1.56 ug/ml; type: tissue-based, Danio rerio; conditions: zebrafish, dose 1.56 µg/ml
Acetylcholinesterase = Acetylcholinesterase (Electrophorus electricus, UniProt O42275); test: Inhibition of electric eel AChE by Ellman's method
[14] = Toxicity in 3 dpf zebra fish assessed as mortality at 6.25 ug/ml (reference value: 0%); design: species or system Danio rerio; conditions: zebrafish, at 6.25 µg/mL, read-out: Activity
[15] = Toxicity in 3 dpf zebra fish assessed as mortality at 3.125 ug/ml (reference value: 0%); design: species or system Danio rerio; conditions: zebrafish, at 3.125 µg/mL, read-out: Activity
[16] = Metal chelating activity assessed as Cu2+-compound complex formation in PBS buffer at pH 7.4 at 37.5 uM by UV-Visible spectra analysis
[17] = Toxicity in 3 dpf zebra fish assessed as mortality at 200 ug/ml (reference value: 0%); design: species or system Danio rerio; conditions: zebrafish, at 200 µg/mL, read-out: Activity
HT-22 [18] = test: Activation of ubiquitin-proteasome system in mouse HT-22 cells expressing pEGFP-N1-APP assessed as increase in APP degradation by measuring reduction in GFP level at 2.5 to 20 uM after 24 hrs by flow cytometric analysis; type: cell-based; conditions: filed as activator, dose 2.5-20 µM
Mus musculus [19] = test: Antialzheimer activity in scopolamine-induced Kunming mouse model of memory impairment assessed as total mapped in brain hippocampus at 5 mg/kg , po by illumina sequencing method (reference value: 97.13%); type: functional
PC-12 = test: Cytotoxicity against rat PC-12 cells assessed as reduction in cell viability up to 100 uM after 48 hrs by MTT assay; type: cell-based; conditions: pc-12, 48 h
[20] = Metal chelating activity assessed as Zn2+-compound complex formation in methanol at 37.5 uM by UV-Visible spectra analysis
[21] = Toxicity in 3 dpf zebra fish assessed as mortality at 50 ug/ml (reference value: 0%); design: species or system Danio rerio; conditions: zebrafish, at 50 µg/mL, read-out: Activity
[22] = Toxicity in 3 dpf zebra fish assessed as mortality at 1.56 ug/ml (reference value: 0%); design: species or system Danio rerio; conditions: zebrafish, at 1.56 µg/mL, read-out: Activity
Mus musculus [23] = test: Antialzheimer activity in scopolamine-induced Kunming mouse model of memory impairment assessed as Q30 bases ratio (raw data) in brain hippocampus at 5 mg/kg , po by illumina sequencing method (reference value: 93.53%); type: functional
[24] = Selectivity index, ratio of IC50 for inhibition of equine serum BChE to IC50 for inhibition of electric eel AChE

Acetylcholinesterase, sequence (O42275 whole entry): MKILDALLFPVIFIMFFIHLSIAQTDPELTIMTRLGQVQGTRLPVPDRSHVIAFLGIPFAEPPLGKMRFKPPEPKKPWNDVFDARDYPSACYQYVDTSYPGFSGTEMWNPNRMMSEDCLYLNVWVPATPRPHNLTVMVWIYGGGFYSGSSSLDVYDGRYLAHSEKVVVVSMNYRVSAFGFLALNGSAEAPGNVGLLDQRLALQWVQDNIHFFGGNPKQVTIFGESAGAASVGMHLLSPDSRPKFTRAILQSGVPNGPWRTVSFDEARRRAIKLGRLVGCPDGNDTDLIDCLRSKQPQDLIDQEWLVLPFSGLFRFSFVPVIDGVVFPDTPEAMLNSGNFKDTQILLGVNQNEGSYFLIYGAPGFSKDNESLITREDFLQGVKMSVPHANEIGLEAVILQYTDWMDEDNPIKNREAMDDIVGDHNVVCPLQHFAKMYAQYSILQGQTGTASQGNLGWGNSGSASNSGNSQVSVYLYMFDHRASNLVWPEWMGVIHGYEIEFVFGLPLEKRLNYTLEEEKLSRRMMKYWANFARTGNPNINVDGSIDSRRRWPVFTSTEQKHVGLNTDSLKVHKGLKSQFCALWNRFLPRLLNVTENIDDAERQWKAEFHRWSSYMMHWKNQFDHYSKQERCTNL

In the case of `CCN(CCCCOc1ccc(-c2cc(=O)c3c(O)cc(OCCCCN(CC)Cc4ccccc4)cc3o2)cc1)Cc1ccccc1`, the Activity [1] is reported as 33.3%, the mortality at 25 ug/ml [2] is reported as 100% and the Activity (HT-22 [3]) is reported as “Active”. The Activity [4] was “inactive”, the Activity [5] was “Non-Toxic” and the Activity (Danio rerio [6]) was 84%. The mortality at 100 ug/ml [7] was 100%, the Activity (Danio rerio [8]) was 81% and the Activity [9] was “Active”. It also gave an Activity (Danio rerio [10]) of 87%, an Activity [11] of 66.7% and an Activity [12] of 60%. For the same molecule, the Activity [13] was “Toxic”, the IC50 (Acetylcholinesterase) was 3.7 µM and the mortality at 6.25 ug/ml [14] was 100%. For the same molecule, the mortality at 3.125 ug/ml [15] was 100%, the Activity [16] was “Active” and the mortality at 200 ug/ml [17] was 100%. For the same molecule, the Activity (HT-22 [18]) was “Active”, the Activity (Mus musculus [19]) was 97.39% and the Activity (PC-12) was “Non-Toxic”. The Activity [20] was “inactive”, the mortality at 50 ug/ml [21] was 100% and the mortality at 1.56 ug/ml [22] was 6.7%. For the same molecule, the Activity (Mus musculus [23]) was 93.58% and the Ratio IC50 [24] was 2.6.
